Laboratory results published in patent publication US10995067B2, “Treatment of Fabry disease” (Academia Sinica, priority 2016, dated 2021).

Legend:
[1] = target: T1, β-galactosidase from human lysate (lysed human lymphocytes) (Homo sapiens, UniProt P16278); assay: Glycosidase activity assay: β-galactosidase; assay type: biochemical; conditions: inhibitors tested at 100 μM
T1 construct: endogenous in cells; host or cells: normal human lymphocytes (lysate, 62 μg/ml)
T1 sequence (P16278 29-677): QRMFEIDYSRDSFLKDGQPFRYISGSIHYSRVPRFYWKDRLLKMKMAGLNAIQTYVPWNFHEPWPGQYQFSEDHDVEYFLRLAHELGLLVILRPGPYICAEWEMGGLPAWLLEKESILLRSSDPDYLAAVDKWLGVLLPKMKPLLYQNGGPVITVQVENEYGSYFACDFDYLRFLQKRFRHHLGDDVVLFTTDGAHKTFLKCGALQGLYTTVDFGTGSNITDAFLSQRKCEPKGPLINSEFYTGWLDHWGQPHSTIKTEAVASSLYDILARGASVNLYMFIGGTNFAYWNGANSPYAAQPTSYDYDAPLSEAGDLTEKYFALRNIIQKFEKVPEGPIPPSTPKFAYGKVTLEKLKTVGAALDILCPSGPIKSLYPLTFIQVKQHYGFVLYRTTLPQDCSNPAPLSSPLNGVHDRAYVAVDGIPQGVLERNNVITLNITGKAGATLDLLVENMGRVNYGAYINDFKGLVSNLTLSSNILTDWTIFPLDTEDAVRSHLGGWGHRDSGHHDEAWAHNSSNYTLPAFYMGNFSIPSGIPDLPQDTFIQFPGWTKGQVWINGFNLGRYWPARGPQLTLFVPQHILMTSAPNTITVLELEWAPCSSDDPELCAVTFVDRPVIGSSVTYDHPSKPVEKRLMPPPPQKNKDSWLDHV

[2] = target: T2, α-mannosidase from Jack beans (Canavalia ensiformis, UniProt C0HJB3); assay: Glycosidase activity assay: α-mannosidase; assay type: biochemical; conditions: inhibitors tested at 100 μM
T2 construct: purchased
T2 sequence (C0HJB3 1-981): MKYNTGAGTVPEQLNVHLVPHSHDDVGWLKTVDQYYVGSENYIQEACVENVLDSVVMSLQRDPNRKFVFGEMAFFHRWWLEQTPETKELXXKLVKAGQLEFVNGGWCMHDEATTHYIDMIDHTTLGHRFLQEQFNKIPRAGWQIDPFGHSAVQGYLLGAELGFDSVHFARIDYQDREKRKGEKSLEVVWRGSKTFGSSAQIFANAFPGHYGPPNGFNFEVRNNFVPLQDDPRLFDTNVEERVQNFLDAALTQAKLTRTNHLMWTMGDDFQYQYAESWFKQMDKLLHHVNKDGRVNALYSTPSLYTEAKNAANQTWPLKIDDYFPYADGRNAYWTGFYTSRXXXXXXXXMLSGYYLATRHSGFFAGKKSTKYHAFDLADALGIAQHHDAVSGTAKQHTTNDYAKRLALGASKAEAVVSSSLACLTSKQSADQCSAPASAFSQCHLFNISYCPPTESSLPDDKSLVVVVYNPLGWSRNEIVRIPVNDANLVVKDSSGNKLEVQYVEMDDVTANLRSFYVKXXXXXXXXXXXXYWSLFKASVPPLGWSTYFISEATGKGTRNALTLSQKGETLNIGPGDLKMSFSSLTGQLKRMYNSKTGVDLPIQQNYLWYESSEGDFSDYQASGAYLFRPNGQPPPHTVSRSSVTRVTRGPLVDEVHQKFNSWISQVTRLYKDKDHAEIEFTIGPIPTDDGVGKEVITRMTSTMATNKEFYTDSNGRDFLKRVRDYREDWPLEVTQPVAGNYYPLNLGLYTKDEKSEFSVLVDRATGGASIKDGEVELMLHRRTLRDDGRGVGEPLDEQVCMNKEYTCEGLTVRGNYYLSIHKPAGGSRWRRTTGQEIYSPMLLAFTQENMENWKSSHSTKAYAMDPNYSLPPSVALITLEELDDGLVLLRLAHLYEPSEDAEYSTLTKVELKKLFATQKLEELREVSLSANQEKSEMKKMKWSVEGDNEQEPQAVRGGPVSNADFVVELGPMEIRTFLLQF

[3] = target: T3, rh-α-Gal A (recombinant human α-galactosidase A) (Homo sapiens, UniProt P06280); assay: biochemical; conditions: read-out: Inhibition activity (%) rh-α-Gal A
T3 sequence (P06280 32-429): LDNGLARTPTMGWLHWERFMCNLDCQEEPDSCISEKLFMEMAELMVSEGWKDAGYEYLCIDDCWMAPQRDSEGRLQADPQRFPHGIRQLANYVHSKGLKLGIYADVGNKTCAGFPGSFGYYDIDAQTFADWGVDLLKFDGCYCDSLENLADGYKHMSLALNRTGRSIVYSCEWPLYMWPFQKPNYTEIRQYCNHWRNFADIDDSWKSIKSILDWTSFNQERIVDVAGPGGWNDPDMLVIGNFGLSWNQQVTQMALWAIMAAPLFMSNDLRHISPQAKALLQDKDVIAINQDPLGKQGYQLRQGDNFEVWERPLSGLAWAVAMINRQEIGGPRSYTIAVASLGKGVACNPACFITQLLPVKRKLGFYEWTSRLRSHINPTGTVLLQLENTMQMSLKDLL
Method: Libraries (20 μL) were diluted to give the final concentration of 20 μM, mixed with substrate 4-methylberiilyl α-D-galactopyranoside (20 μL) and recombinant human alpha-galactosidase (10 μL) in pH 4.6 buffer (50 μL), then assay was carried out at 37° C. for 15 min. […] The control group was a mixture of HBTU, DIEA, acid libraries (in total 20 μL), substrate (20 μL), buffer (50 μL) and enzyme (10 μL) excluded the amide products. Blank was a solution of substrate (20 μL) and enzyme (10 μL) in pH 4.6 buffer (70 μL). Inhibition was performed as relative enzyme activity to control.

[4] = target: T4, α-galactosidase from coffee beans (Coffea arabica, UniProt Q42656); assay: Glycosidase activity assay: α-galactosidase (coffee beans); assay type: biochemical; conditions: inhibitors tested at 100 μM
T4 construct: purchased
T4 sequence (Q42656 16-378): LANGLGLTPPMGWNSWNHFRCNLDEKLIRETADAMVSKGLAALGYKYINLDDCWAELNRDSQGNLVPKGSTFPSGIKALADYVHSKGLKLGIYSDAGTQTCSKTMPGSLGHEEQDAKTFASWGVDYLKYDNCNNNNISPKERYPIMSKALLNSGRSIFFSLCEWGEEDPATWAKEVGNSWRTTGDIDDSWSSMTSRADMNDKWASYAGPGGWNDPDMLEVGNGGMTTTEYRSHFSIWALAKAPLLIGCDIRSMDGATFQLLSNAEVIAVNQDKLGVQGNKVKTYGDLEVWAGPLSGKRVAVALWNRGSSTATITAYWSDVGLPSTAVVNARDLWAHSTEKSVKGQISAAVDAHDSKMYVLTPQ

[5] = tested on: Wild-type human lymphocytes (08C0058); assay: Cytotoxicity assay using human lymphocytes (alamarBlue); assay type: cell-based; conditions: concentration up to 200 μM; data not shown
Method: Wild-type human lymphocytes (08C0058) were seeded in 96-well plates at a number of 50,000 cells/well. […] All compounds were dissolved in DMSO or H2O and control experiments were performed with DMSO. Cells were incubated at 37° C. in 5% CO2 for 48-72 h. Then, 10λ alamarBlue was added to cells suspended in medium, and the mixture was incubated for additional 3-5 hrs at 37° C. in 5% CO2.

O=C(CCCCC1CCCCC1)NC[C@H]1N[C@H](CO)[C@H](O)[C@@H]1O [Compound 33]
Inhibition activity (%) β-galactosidase [1]: No inhibition | inhibition at 100 µM [2]: 36% | inhibition at 100 µM [3]: 97% | inhibition at 100 µM [4]: 94% | toxic effect in cell culture [5]: no toxic effect
